Results on nine molecules are retold here after US20140005163A1 (NOVARTIS AG, priority 2010, published 2014).

Test [1] deals with T1, PI3K beta (Homo sapiens, UniProt P42338).
T1 construct: for the full-length p110-b subunit are generated and fused by overlapping PCR; p85(iSH2) fusion partner (see partner chain) (N); His tag (C); made in house; host or cells: baculovirus; Tn5 (Trichoplusia ni) or TiniPro insect cells
The experiment in a line: PI3K beta kinase assay (Kinase-Glo luminescence). It is filed as biochemical. The method in brief:
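IC50 is derived by four-parameter logistic curve fitting of Kinase-Glo luminescence, which measures ATP left after a 60 min room-temperature reaction. Conditions are 25 nM His-tagged p85(iSH2)-p110β, 1 μM ATP and 10 μg/mL bovine liver phosphatidylinositol.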

The target in test [2] is T2, mTOR (Homo sapiens, UniProt P42345).
T2 construct: purchased Invitrogen Corporation (Carlsbad/CA, USA) PV4753
In words: Biochemical assay for m-TOR by TR-FRET. Conditions: 8 μM ATP, 400 nM GFP-4EBP1, 0.5 nM mTOR. The method in brief: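 Enzyme 0.5 nM, GFP-4EBP1 400 nM, ATP 8 μM (all final); 50 mM HEPES pH 7.5, 10 mM MnCl2, 1 mM DTT; rt. Detection: Tb-α-p4EBP1 [pT46] 0.5 nM in EDTA, TR-FRET, 15 min. Reference compound on every plate, 16-point duplicate dilutions.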
Background: TR-FRET usually uses a lanthanide donor and a delayed reading to cut background.

Test [3] relates to PKB Ser473 phosphorylation in Rat1-myr-HA-p110 alpha cells. The experiment in a line: Reverse protein array assay, PKB Ser473 phosphorylation in Rat1-myr-p110 alpha cells. Particulars: 0.5 h, pAkt Ser473, 30 minutes compound incubation, read-out: p-PKB IC50. Type of test: cell-based. The method, boiled down: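 Compound exposure lasted 30 min in Rat1 cells bearing membrane-targeted HA-p110 isoforms, using 8 serial concentrations. Arrayed lysates, each spotted at four dilutions, gave relative fluorescence signals for phospho-Ser473 PKB.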

T2 sequence (P42345 1360-2549 limits assumed): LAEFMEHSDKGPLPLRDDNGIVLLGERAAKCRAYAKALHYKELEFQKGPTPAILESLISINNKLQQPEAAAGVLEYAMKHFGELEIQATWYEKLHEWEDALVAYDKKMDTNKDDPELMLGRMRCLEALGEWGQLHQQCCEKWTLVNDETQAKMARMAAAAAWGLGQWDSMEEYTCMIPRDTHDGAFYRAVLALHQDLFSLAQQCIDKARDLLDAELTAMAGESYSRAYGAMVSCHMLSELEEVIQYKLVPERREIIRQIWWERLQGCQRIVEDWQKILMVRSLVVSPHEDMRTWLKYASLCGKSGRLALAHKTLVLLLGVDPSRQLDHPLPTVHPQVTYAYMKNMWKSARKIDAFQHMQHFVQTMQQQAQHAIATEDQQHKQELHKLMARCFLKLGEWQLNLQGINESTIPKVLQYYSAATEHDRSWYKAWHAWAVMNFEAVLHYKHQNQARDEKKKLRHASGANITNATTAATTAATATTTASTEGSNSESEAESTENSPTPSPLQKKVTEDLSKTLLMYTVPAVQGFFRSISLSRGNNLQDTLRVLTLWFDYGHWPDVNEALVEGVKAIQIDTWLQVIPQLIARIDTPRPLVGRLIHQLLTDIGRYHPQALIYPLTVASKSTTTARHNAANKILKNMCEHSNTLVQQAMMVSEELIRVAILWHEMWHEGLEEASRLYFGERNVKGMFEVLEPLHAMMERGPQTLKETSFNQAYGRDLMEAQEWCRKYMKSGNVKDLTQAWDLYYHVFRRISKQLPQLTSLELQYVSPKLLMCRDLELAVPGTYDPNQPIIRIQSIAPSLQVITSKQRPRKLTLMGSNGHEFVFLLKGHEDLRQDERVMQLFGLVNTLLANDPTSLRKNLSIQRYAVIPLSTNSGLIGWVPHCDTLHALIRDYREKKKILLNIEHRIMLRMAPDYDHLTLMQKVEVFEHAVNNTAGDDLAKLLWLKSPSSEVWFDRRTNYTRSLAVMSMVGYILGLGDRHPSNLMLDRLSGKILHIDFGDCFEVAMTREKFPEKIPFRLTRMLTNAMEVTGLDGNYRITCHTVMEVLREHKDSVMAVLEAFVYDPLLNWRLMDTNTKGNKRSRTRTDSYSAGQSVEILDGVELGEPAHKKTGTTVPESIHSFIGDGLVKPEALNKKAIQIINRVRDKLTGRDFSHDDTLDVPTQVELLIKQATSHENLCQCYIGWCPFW
T1 sequence (P42338 with tags, fused parts or gaps limits assumed): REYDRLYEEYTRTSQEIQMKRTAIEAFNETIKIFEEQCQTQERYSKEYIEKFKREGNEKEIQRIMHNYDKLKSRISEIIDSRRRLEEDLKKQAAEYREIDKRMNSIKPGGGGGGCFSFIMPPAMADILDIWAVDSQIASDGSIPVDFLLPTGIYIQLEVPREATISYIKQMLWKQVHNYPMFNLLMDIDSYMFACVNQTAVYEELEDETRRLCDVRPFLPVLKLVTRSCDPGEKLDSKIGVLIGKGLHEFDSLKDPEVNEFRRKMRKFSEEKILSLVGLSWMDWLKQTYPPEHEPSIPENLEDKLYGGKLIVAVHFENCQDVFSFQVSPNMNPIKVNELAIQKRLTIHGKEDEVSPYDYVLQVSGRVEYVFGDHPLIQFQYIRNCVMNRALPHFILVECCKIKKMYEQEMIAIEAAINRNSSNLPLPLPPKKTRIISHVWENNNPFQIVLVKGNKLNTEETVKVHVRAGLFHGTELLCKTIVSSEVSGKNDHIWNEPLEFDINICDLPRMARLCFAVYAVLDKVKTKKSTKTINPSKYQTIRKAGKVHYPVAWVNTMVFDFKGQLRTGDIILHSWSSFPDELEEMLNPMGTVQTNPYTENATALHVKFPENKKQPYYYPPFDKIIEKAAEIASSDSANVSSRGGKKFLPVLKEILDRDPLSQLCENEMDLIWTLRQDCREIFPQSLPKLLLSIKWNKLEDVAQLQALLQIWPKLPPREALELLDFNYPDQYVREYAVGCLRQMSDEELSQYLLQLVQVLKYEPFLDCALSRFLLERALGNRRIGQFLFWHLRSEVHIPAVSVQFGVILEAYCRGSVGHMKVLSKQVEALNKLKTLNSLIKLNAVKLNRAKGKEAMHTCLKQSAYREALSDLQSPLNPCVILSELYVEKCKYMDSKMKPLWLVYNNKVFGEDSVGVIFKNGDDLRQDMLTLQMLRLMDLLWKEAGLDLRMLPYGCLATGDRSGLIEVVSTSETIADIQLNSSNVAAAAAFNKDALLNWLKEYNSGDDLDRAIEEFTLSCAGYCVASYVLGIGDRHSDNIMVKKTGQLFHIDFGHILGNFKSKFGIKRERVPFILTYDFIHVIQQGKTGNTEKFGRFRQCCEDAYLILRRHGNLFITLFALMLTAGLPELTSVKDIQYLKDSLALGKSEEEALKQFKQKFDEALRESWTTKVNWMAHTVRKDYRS

Take `Cc1nn(C)cc1-n1c(=O)[nH]c2cnc3ccc(-c4cnc(N(C)C)nc4)cc3c21` [Example 207, 8-(2-Dimethylamino-pyrimidin-5-yl)-1-(1,3-dimethyl-1H-pyrazol-4-yl)-1,3-dihydro-imidazo[4,5-c]quinolin-2-one]: the IC50 came out at 0.167 µM in test [1], 0.011 µM in test [2] and 0.065 µM in test [3].
The corresponding values for `CCNc1cc(-c2ccc3ncc4c(c3c2)n(-c2c(C)nn(CCO)c2C)c(=O)n4C)cnc1C` [Example 210, 8-(5-Ethylamino-6-methyl-pyridin-3-yl)-1-[1-(2-hydroxy-ethyl)-3,5-dimethyl-1H-pyrazol-4-yl]-3-methyl-1,3-dihydro-imidazo[4,5-c]quinolin-2-one] are 0.049 µM, 0.04 µM and 0.057 µM.
Regarding `CCOc1cc(-c2ccc3ncc4c(c3c2)n(-c2cn(CCO)nc2C)c(=O)n4C)cnc1C` [Example 211.2, 8-(5-Ethoxy-6-methyl-pyridin-3-yl)-1-[1-(2-hydroxy-ethyl)-3-methyl-1H-pyrazol-4-yl]-3-methyl-1,3-dihydro-imidazo[4,5-c]quinolin-2-one], the IC50 stood at 0.017 µM in test [1], 0.011 µM in test [2] and 0.008 µM in test [3].
The corresponding values for `Cc1nn(C(C)C)cc1-n1c(=O)n(C)c2cnc3ccc(-c4cncc(C(C)(C)O)c4)cc3c21` [Example 215.1, 8-[5-(1-Hydroxy-1-methyl-ethyl)-pyridin-3-yl]-1-(1-isopropyl-3-methyl-1H-pyrazol-4-yl)-3-methyl-1,3-dihydro-imidazo[4,5-c]quinolin-2-one] are 0.04 µM, 0.035 µM and 0.016 µM.
As to `CCn1cc(-n2c(=O)n(C)c3cnc4ccc(-c5cncc(C(C)(C)O)c5)cc4c32)c(C)n1` [Example 215.4, 1-(1-Ethyl-3-methyl-1H-pyrazol-4-yl)-8-[5-(1-hydroxy-1-methyl-ethyl)-pyridin-3-yl]-3-methyl-1,3-dihydro-imidazo[4,5-c]quinolin-2-one], the half-inhibitory concentration (IC50) stood at 0.012 µM in test [1], 0.013 µM in test [2] and 0.02 µM in test [3].
The corresponding values for `CNC(=O)c1cc(-c2ccc3ncc4c(c3c2)n(-c2cn(C)nc2C)c(=O)n4C)cnc1N` [Example 224.1, 2-Amino-5-[1-(1,3-dimethyl-1H-pyrazol-4-yl)-3-methyl-2-oxo-2,3-dihydro-1H-imidazo[4,5-c]quinolin-8-yl]-N-methyl-nicotinamide] are 0.062 µM, 0.034 µM and 0.019 µM.
For `Cc1nn(C)cc1-n1c(=O)n(C)c2cnc3ccc(-c4cnc5c(c4)C(C)(C)C(=O)N5C)cc3c21` [Example 233, 1-(1,3-Dimethyl-1H-pyrazol-4-yl)-3-methyl-8-(1,3,3-trimethyl-2-oxo-2,3-dihydro-1H-pyrrolo[2,3-b]pyridin-5-yl)-1,3-dihydro-imidazo[4,5-c]quinolin-2-one], in that order: 0.039 µM, 0.064 µM and 0.026 µM.
With `CCn1cc(-n2c(=O)n(C)c3cnc4ccc(-c5cnc(OC)nc5OC)cc4c32)c(C)n1` [Example 234.1, 8-(2,4-Dimethoxy-pyrimidin-5-yl)-1-(1-ethyl-3-methyl-1H-pyrazol-4-yl)-3-methyl-1,3-dihydro-imidazo[4,5-c]quinolin-2-one], the half-maximal inhibitory concentration (IC50) in test [1] is 0.119 µM; in test [2] it was 0.014 µM; in test [3], 0.01 µM.
Turning to `COC(C)(C)c1cncc(-c2ccc3ncc4c(c3c2)n(-c2cn(C)nc2C)c(=O)n4C)c1` [Example 239, 1-(1,3-Dimethyl-1H-pyrazol-4-yl)-8-[5-(1-methoxy-1-methyl-ethyl)-pyridin-3-yl]-3-methyl-1,3-dihydro-imidazo[4,5-c]quinolin-2-one], the IC50 in test [1] is 0.013 µM; in test [2], 0.049 µM; in test [3] it was 0.028 µM.

As a reminder, the IC50 is the concentration that gives 50% inhibition.
